Measured values: patent US20240425460A1, “CRYSTAL FORM OF NIROGACESTAT DIHYDROBROMIDE, AND PREPARATION METHOD THEREFOR, AND USE THEREOF” (CRYSTAL PHARMACEUTICAL (SUZHOU) CO., LTD., priority 2022, published 2024)

Legend:
[1] = Density and flowability (bulk/tapped density, compressibility index); format: physicochemical; details: for Compressibility index: c=(ρf−ρ0)/ρf; for Tapped density (ρf): tapped 1250 times
Procedure: About 300-500 mg of powder were added into a 5-mL measuring cylinder, and a bulk density was recorded. Then the powder was tapped for 1250 times by ZS-2E tap density tester to make it in the tightest state and the tapped volume was recorded. The bulk density (ρ0) and tapped density (ρf) were calculated.
Compressibility also known as the Compressibility index or Carr index is usually utilized to evaluate the flowability of powder or granules during the drug product process. Compressibility index was calculated according to c=(ρf−ρ0)/ρf. According to criteria of flowability recorded in ICH Q4B Annex 13, the smaller the compressibility index, the better the flowability.

[2] = Particle size distribution (Mastersizer 3000, wet mode); format: physicochemical
Procedure: The particle size distribution data in the present disclosure were acquired by a Mastersizer 3000 laser particle size analyzer of Malvern. The test was carried out in wet mode, using a Hydro MV dispersion device, and the dispersant was Isopar G. The parameters are as follows:
Form CSII and prior art Form A were added into glass vials with the Isopar G (containing 0.2% lecithin). The mixture was mixed thoroughly and transferred into the Hydro MV dispersing device. The experiment was started when the obscuration is in appropriate range. The particle size distributions were tested before and after 60 seconds of ultrasonication to obtain the average particle size, D10 (the portion of particles with diameters below this value is 10%), D50 (the portion of particles with diameters below this value is 50%) and D90 (the portion of particles with diameters below this value is 90%), the results are listed in Table 9.

[3] = physchem
Procedure: 1.9 mg of Form CSII was weighted into a glass vial, then water was added dropwise at 37° C. until the solid is completely dissolved. The maximum insoluble volume and minimum dissolved volume of the sample in water were recorded, and the solubility of Form CSII in water (mg/mL) was calculated.

[4] = Compressibility (tensile strength after compression at 3 KN); format: physicochemical; details: 60 mg, Φ6 mm round tooling, T=2H/πDL
Procedure: ENERPAC manual tablet press was used for compression. 60 mg of Form CSII and prior art Form A were weighed and added into the dies of a Φ6 mm round tooling, compressed at 3 KN manually, then stored at room temperature for 24 h until elastic recovery is complete, diameter (D) and thickness (L) were tested with a caliper. Hardness (H) was tested with an intelligent tablet hardness tester. Tensile strength of the powder was calculated with the following formula: T=2H/πDL. […] Under a certain force, the greater the tensile strength, the better the compressibility.

[5] = Morphology by polarized light microscopy; format: physicochemical; details: PLM, magnification 100 times
Procedure: PLM data in the present disclosure were acquired by Sunny CX40P polarizing microscope.
The parameter of the PLM method of the present disclosure is as follows: • Magnification times: 100
About 0.5 mg Form CSII and prior art Form A were placed on a glass slide, a small amount of immersion oil was added to disperse the sample, and then the system was covered with a coverslip.
About 0.5 mg Form CSIII and prior art Form A were placed on a glass slide, a small amount of immersion oil was added to disperse the sample, and then the system was covered with a coverslip.

[6] = for Solubility in FaSSIF / Solubility in FeSSIF: 1 h
Excerpt: When solubility test is used to predict the in vivo performance of a drug, it is critical to simulate in vivo conditions as closely as possible. Fasted state simulated intestinal fluid (FaSSIF) and fed state simulated intestinal fluid (FeSSIF) can be used to simulate the conditions in vivo and predict the effects of eating, thus solubilities in these media are closer to those in vivo.
A certain amount of Form CSII and prior art Form A were suspended into FeSSIF and FaSSIF to get saturated solutions at 37° C. After equilibrated for 1 h, concentrations of the saturated solutions were measured by HPLC.
A certain amount of Form CSIII and Form A in the prior art were suspended into FeSSIF and FaSSIF to get saturated solutions at 37° C. After equilibrated for 1 h, concentrations of the saturated solutions were measured by HPLC.

[7] = Stability of drug substance on storage (XRPD, HPLC); format: physicochemical
Procedure: A certain amount of Form CSII were stored under different conditions of 25° C./60% RH and 40° C./75% RH after packing with different conditions listed in Table 11. Crystalline forms and chemical purities were checked by XRPD and HPLC, respectively.
Sealed with desiccants and antioxidants: Put a sample into a glass vial, cover the vial with aluminum foil, and punch holes in the foil, then seal the glass vial with 2 g silica gel desiccants and 2.2 g antioxidants in an aluminum foil bag.
A certain amount of Form CSIII were stored under different conditions of 25° C./60% RH, 40° C./75% RH and 60° C./75% RH after packing with different conditions listed in Table 16. Crystalline forms were checked by XRPD.
Sealed with desiccants and antioxidants: Put a sample into a glass vial, cover the vial with aluminum foil, and punch holes in the foil, then seal the glass vial with 2 g silica gel desiccant and 2.2 g antioxidant in an aluminum foil bag.

[8] = Stability of crystalline form in formulation process (XRPD); format: physicochemical; details: pre-blending, simulated dry granulation, tableting 5 kN
Procedure: The XRPD of the blank mixed powder and the samples before and after the formulation was tested.

[9] = Physical stability upon mechanical force (tableting, XRPD); format: physicochemical; details: 5 kN pressure for 10 s
Excerpt: A certain amount of Form CSII was compressed into a tablet under 5 kN pressure with the dies of a Φ6 mm round tooling by the manual tablet press, and the tablet was kept under 5 kN pressure for 10 s. Crystalline form before and after tableting were checked by XRPD.

[10] = 25° C./60% RH, sealed with desiccant and antioxidant
[11] = 40° C./75% RH, sealed with desiccant and antioxidant

Bulk density (ρ0) [1] [g/mL]	Compressibility index [1] [%]	Tapped density (ρf) [1] [g/mL]	Average particle size ([2]; ultrasonication time 0 s) [μm]	D10 ([2]; ultrasonication time 0 s) [μm]	D50 ([2]; ultrasonication time 0 s) [μm]	D90 ([2]; ultrasonication time 0 s) [μm]	Average particle size ([2]; ultrasonication time 60 s) [μm]	D10 ([2]; ultrasonication time 60 s) [μm]	D50 ([2]; ultrasonication time 60 s) [μm]	D90 ([2]; ultrasonication time 60 s) [μm]	Tensile strength [4] [MPa]	Morphology [5]	Solubility in FaSSIF [6]	Solubility in FeSSIF [6]	Time the form keeps stable [7, 10]	Time the form keeps stable [7, 11]	Solubility in FaSSIF, times that of prior art Form A [6] [times]	Solubility in FeSSIF, times that of prior art Form A [6] [times]	Structure (SMILES)	other results
0.251	10.8	0.282	646	21.2	415	1640	629	14.4	356	1660	0.37	agglomerates	6.7	7.6	–	–	–	–	Br.Br.CCC[C@H](N[C@H]1CCc2cc(F)cc(F)c2C1)C(=O)Nc1cn(C(C)(C)CNCC(C)(C)C)cn1 [Form A, (S)-2-(((S)-6,8-difluoro-1,2,3,4-tetrahydronaphthalen-2-yl)amino)-N-(1-(2-methyl-1-(neopentylamino)propan-2-yl)-1H-imidazol-4-yl) pentanamide, reference compound]	Solubility in water, class by standards of Chinese Pharmacopoeia and United States Pharmacopoeia [3]: slightly soluble
0.49	5.3	0.51	198	21.9	157	435	119	10.3	81.7	282	0.68	uniform plate crystalline form	9.8	11.7	at least 9 months	at least 6 months	1.5	1.5	Br.Br.CCC[C@H](N[C@H]1CCc2cc(F)cc(F)c2C1)C(=O)Nc1cn(C(C)(C)CNCC(C)(C)C)cn1 [Form CSII, (S)-2-(((S)-6,8-difluoro-1,2,3,4-tetrahydronaphthalen-2-yl)amino)-N-(1-(2-methyl-1-(neopentylamino)propan-2-yl)-1H-imidazol-4-yl) pentanamide]	Purity after storage ([7]; 25° C./60% RH, 9 months, sealed with desiccants and antioxidants, HPLC): 99.43%; Purity after storage ([7]; 40° C./75% RH, 6 months, sealed with desiccants and antioxidants, HPLC): 99.42%; Purity ([7]; initial, HPLC): 99.37%; Solubility in water, times that of Form A [3]: 3-5 times; solubility ([3]; 37 °C, water, thermodynamic from solid): 19 to 38 mg/mL; Crystalline form after formulation process [8]: remains stable after the formulation process; Crystalline form after tableting [9]: remains stable after tableting
–	–	–	–	–	–	–	–	–	–	–	–	uniform plate crystalline form	8.7	11.7	at least 3 months	at least 3 months	1.3	1.5	Br.Br.CCC[C@H](N[C@H]1CCc2cc(F)cc(F)c2C1)C(=O)Nc1cn(C(C)(C)CNCC(C)(C)C)cn1 [Form CSIII, (S)-2-(((S)-6,8-difluoro-1,2,3,4-tetrahydronaphthalen-2-yl)amino)-N-(1-(2-methyl-1-(neopentylamino)propan-2-yl)-1H-imidazol-4-yl) pentanamide]	Time the form keeps stable ([7]; 60° C./75% RH, sealed with desiccants and antioxidants): at least 2 months
